Target: T1, human recombinant OX2 (hOX2) receptors expressed in CHO cells (Homo sapiens, UniProt O43614)
T1 construct: host or cells: CHO cells (hOX2-CHO)
T1 sequence (O43614 1-444): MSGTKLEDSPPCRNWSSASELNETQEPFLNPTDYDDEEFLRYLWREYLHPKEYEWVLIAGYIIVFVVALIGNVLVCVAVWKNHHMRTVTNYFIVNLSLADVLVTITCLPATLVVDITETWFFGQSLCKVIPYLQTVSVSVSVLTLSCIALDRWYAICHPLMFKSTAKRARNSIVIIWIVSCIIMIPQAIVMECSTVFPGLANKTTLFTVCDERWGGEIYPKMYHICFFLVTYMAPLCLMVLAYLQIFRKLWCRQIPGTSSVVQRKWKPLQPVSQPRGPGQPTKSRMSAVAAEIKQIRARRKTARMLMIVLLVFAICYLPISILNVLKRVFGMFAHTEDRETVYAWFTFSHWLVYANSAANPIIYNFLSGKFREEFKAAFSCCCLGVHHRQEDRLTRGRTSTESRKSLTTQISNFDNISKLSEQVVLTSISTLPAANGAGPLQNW
Assay: IP-1 accumulation assay (IP-One HTRF) in hOX2-CHO cells
Assay type: cell-based
Settings: 60 min incubation at 37° C., mean of at least two independent experiments, read-out: EC50_OX2R Category
Method: The accumulation of Inositol-1 Monophosphate (IP-1) was measured using IP-One HTRF® Terbium cryptate based assay (Cisbio) in human recombinant OX1 (hOX1) and at OX2 (hOX2) receptors expressed in CHO cells (DiscoverX) according to the manufacturer's instructions for cells tested in suspension.
hOX1-CHO and hOX2-CHO cells were seeded into white 384-well plates at a density of 20,000 cells/well in Hank's Balanced Salt Solution (HBSS) containing 20 mM HEPES pH 7.4, 50 mM, LiCl and 0.1% and Bovine Serum Albumin (BSA).
Compounds of disclosure were tested in an 11 points concentration response curve (CRC) serially diluted in neat DMSO at 200 fold concentrations and added by Echo acoustic liquid handling (Labcyte) to the cells (0.5% DMSO final in the assay). After 60 min of incubation at 37° C. detection reagents, IP1-d2 tracer and anti-IP1-cryptate were diluted in lysis buffer according to the manufacturer's descriptions and added to the cells.
Following 60 min incubation at room temperature, time-resolved fluorescence (HTRF) was measured at 615 nm and 665 nm by Envision Multilabel reader (Perkin Elmer) and the HTRF ratio (A665/A615×10^4) was calculated.
The IP-1 accumulation response was expressed as percentage of the maximal OX-A response.
Curve fitting and EC50 estimations were carried out using a four-parameter logistic model using XLfit Software. Mean data of EC50 are calculated from at least two independent experiments performed in duplicates

EC50	Structure (SMILES)
< 0.1 µM	O=C1COc2ccccc2[C@H]2CC[C@H](CC2)OC[C@@H]2N1CCC[C@@]21CO[C@](F)(C(F)(F)F)C(=O)N1 (relative stereo) [Example 71a, rel-(1′s,3S,16′R,19′s)-6 (R)-fluoro-6-(trifluoromethyl)-8′,18′-dioxa-11′-azaspiro[morpholine-3,15′-tetracyclo[17.2.2.0^2,70.0^11,16]tricosane]-2′(7′),3′,5′-triene-5,10′-dione]
> 10 µM	C[C@@H]1COc2ccccc2[C@H]2CC[C@H](CC2)OC[C@H]2N(CC[C@]23COCC(=O)N3)C1=O (single isomer, unassigned) [Example 5a]
> 10 µM	C[C@H]1COc2ccccc2[C@H]2CC[C@H](CC2)OC[C@H]2N(CC[C@]23COCC(=O)N3)C1=O (single isomer, unassigned) [Example 5b]
< 0.1 µM	O=C1COC[C@@]2(CCN3C(=O)CCOc4cccc(F)c4[C@H]4CC[C@H](CC4)OC[C@H]32)N1 (single isomer, unassigned) [Example 10a]
> 10 µM	O=C1COC[C@]2(CCN3C(=O)CCOc4cccc(F)c4[C@H]4CC[C@H](CC4)OC[C@@H]32)N1 (single isomer, unassigned) [Example 10b]
< 0.1 µM	C[C@@H]1C[C@@]2(COCC(=O)N2)[C@@H]2CO[C@H]3CC[C@H](CC3)c3ccccc3OCCC(=O)N12 (single isomer, unassigned) [Example 13a]
0.1 to 1 µM	C[C@@H]1C[C@]2(COCC(=O)N2)[C@H]2CO[C@H]3CC[C@H](CC3)c3ccccc3OCCC(=O)N12 (single isomer, unassigned) [Example 13b]
< 0.1 µM	C[C@@H]1C[C@@]2(COCC(=O)N2)[C@@H]2CO[C@H]3CC[C@H](CC3)c3cccc(F)c3OCC(=O)N12 (single isomer, unassigned) [Example 15a]
1 to 10 µM	C[C@@H]1C[C@]2(COCC(=O)N2)[C@H]2CO[C@H]3CC[C@H](CC3)c3cccc(F)c3OCC(=O)N12 (single isomer, unassigned) [Example 15b]
< 0.1 µM	C[C@@H]1C[C@@]2(COCC(=O)N2)[C@@H]2CO[C@H]3CC[C@H](CC3)c3cc(F)cc(F)c3OCC(=O)N12 (single isomer, unassigned) [Example 16a]
> 10 µM	C[C@@H]1C[C@]2(COCC(=O)N2)[C@H]2CO[C@H]3CC[C@H](CC3)c3cc(F)cc(F)c3OCC(=O)N12 (single isomer, unassigned) [Example 16b]

Continued, compound first:

Structure (SMILES)	EC50
O=C1COCC2(CCCN3C(=O)CCCOc4ccccc4-c4cccc(c4F)CC32)N1 (racemic) [Example 61, Rel-(3S,18′S)-24′-fluoro-8′-oxa-13′-azaspiro[morpholine-3,17′-tetracyclo[18.3.1.0^2,70.0^13,18]tetracosane]-1′(24′),2′(7′), 3′,5′,20′,22′-hexaene-5,12′-dione]	1 to 10 µM
O=C1COCC2(CCCN3C(=O)CCCCc4ccccc4-c4cccc(c4F)CC32)N1 (racemic) [Example 62, Rel-(3S, 18′S)-24′-fluoro-13′-azaspiro[morpholine-3,17′-tetracyclo[18.3.1.0^2,70.0^13,18]tetracosane]-1′(24′),2′(7′),3′,5′,20′,22′-hexaene-5,12′-dione]	> 10 µM
CN1CCOc2ccccc2-c2cccc(c2F)CC2N(CCCC23COCC(=O)N3)C1=O (racemic) [Example 63, Rel-(3S,18′S)-24′-fluoro-11′-methyl-8′-oxa-11′,13′-diazaspiro[morpholine-3,17′-tetracyclo[18.3.1.0^2,70.0^13,18]tetracosane]-1′(24′),2′(7′),3′,5′,20′,22′-hexaene-5,12′-dione]	1 to 10 µM
O=C1COCC2(CCCN3C(=O)OCCOc4ccccc4-c4cccc(c4F)CC32)N1 (racemic) [Example 65, Rel-(3S, 18′S)-24′-fluoro-8′,11′-dioxa-13′-azaspiro[morpholine-3,17′-tetracyclo[18.3.1.0^2,70.0^13,18]tetracosane]-1′(24′),2′(7′),3′,5′,20′,22′-hexaene-5,12′-dione]	> 10 µM
O=C1CCC2(CCCN3C(=O)COc4ccccc4[C@H]4CC[C@H](CC4)OCC32)N1 (mixture of isomers) [Example 69, Rel-(1′s,2R,16′R,19′s)-8′,18′-dioxa-11′-azaspiro[pyrrolidine-2,15′-tetracyclo-[17.2.2.0^2,70.0^11,16]tricosane]-2′(7′),3′,5′-triene-5,10′-dione]	0.1 to 1 µM
O=C1COc2ccccc2[C@H]2CC[C@H](CC2)OCC2N1CCCC21COC(C(F)(F)F)N1 (mixture of isomers) [Example 70, Rel-(1′s,3S,16′R,19′s)-5-(trifluoromethyl)-8′,18′-dioxa-11′-azaspiro[1,4-oxazolidine-3,15′-tetracyclo[17.2.2.0^2,70.0^11,16]tricosane]-2′(7′),3′,5′-trien-10′-one]	0.1 to 1 µM
O=C1COCC2(CCCN3C(=O)C4(CC4)COc4cccc(F)c4[C@H]4CC[C@H](CC4)OCC32)N1 (mixture of isomers) [Example 72, (1′s,20′s)-3′-fluorodispiro [cyclopropane-1,10′-[8,19]dioxa-[12]azatetracyclo [18.2.2.0^2,^7.0^12,^17]tetracosane-16′,3″- morpholine]-2′,4′,6′-triene-5″,11′-dione]	< 0.1 µM
O=C1COCC2(CCCN3C(=O)CCCCOc4cccc(n4)[C@H]4CC[C@H](CC4)OCC32)N1 (mixture of isomers) [Example 76, (1′s,21′s)-7′,20′-dioxa-13′,26′-diazaspiro[morpholine-3,17′-tetracyclo[19.2.2.1^2,60.0^13,18]hexacosane]-2′,4′,6′(26′)-triene-5,12′-dione]	< 0.1 µM
CC1CC(=O)N2CCC3(COCC(=O)N3)C2CO[C@H]2CC[C@H](CC2)c2ccccc2O1 (relative stereo) [Example 4, rel-(1′s,3S,16′R,19′s)-9′-methyl-8′,18′-dioxa-12′-azaspiro[morpholine-3,15′-tetracyclo[17.2.2.0^2,70.0^12,16]tricosane]-2′(7′),3′,5′-triene-5,11′-dione]	0.1 to 1 µM
O=C1COCC2(CCN3C(=O)CC(C(F)(F)F)Oc4ccccc4[C@H]4CC[C@H](CC4)OCC32)N1 (relative stereo) [Example 6, rel-(1′s,3S,16′R,19′s)-9′-(trifluoromethyl)-8′,18′-dioxa-12′-azaspiro[morpholine-3,15′-tetracyclo[17.2.2.0^2,70.0^12,16]tricosane]-2′(7′),3′,5′-triene-5,11′-dione]	1 to 10 µM
O=C1NC2(CCN3C(=O)CCOc4ccccc4[C@H]4CC[C@H](CC4)OCC32)COC1F (relative stereo) [Example 8, rel-(1′s,3S,16′R,19′s)-6-fluoro-8′,18′-dioxa-12′-azaspiro[morpholine-3,15′-tetracyclo[17.2.2.0^2,70.0^12,16]tricosane]-2′(7′),3′,5′-triene-5,11′-dione]	< 0.1 µM
C[C@@H]1CC2(COCC(=O)N2)C2CO[C@H]3CC[C@H](CC3)c3ccccc3OCCC(=O)N21 (relative stereo) [Example 13, rel-(1′s,3S, 13′R,16′R,19′s)-13′-methyl-8′,18′-dioxa-12′-azaspiro[morpholine-3,15′-tetracyclo[17.2.2.0^2,70.0^12,16]tricosane]-2′(7′),3′,5′-triene-5,11′-dione]	< 0.1 µM
O=C1COC[C@@]2(CCN3C(=O)CCOc4ccccc4[C@H]4CC[C@H](CC4)OC[C@H]32)N1 (single isomer, unassigned) [Example 1a]	< 0.1 µM
O=C1COC[C@]2(CCN3C(=O)CCOc4ccccc4[C@H]4CC[C@H](CC4)OC[C@@H]32)N1 (single isomer, unassigned) [Example 1b]	> 10 µM
C[C@H]1CC(=O)N2CC[C@]3(COCC(=O)N3)[C@H]2CO[C@H]2CC[C@H](CC2)c2ccccc2O1 (single isomer, unassigned) [Example 4a]	> 10 µM
C[C@H]1CC(=O)N2CC[C@@]3(COCC(=O)N3)[C@@H]2CO[C@H]2CC[C@H](CC2)c2ccccc2O1 (single isomer, unassigned) [Example 4b, (1′s, 3S,9′S,16′R,19′s)-9′-methyl-8′,18′-dioxa-12′-azaspiro[morpholine-3,15′-tetracyclo[17.2.2.0^2,70.0^12,16]tricosane]-2′(7′),3′,5′-triene-5,11′-dione]	0.1 to 1 µM
C[C@@H]1CC(=O)N2CC[C@@]3(COCC(=O)N3)[C@@H]2CO[C@H]2CC[C@H](CC2)c2ccccc2O1 (single isomer, unassigned) [Example 4c]	0.1 to 1 µM
C[C@@H]1CC(=O)N2CC[C@]3(COCC(=O)N3)[C@H]2CO[C@H]2CC[C@H](CC2)c2ccccc2O1 (single isomer, unassigned) [Example 4d]	> 10 µM

Source: US20250320227A1, “MACROCYCLIC OREXIN RECEPTOR AGONISTS AND USES THEREOF” (Jazz Pharmaceuticals Ireland Limited, priority 2022, published 2025)
